According to patent US7569337B2, “Coumarines useful as biomarkers” (Novartis AG, priority 2002, dated 2009):

Structure (SMILES): O=c1oc2cc3c(cc2cc1-c1cn2cc(Cl)ccc2n1)CCCN3CCF [Example 2, 3-(6-Chloro-imidazo[1,2-a]pyridin-2-yl)-8-(2-fluoro-ethyl)-5,6,7,8-tetrahydro-1-oxa-8-aza-anthracen-2-one]
- melting point: 290 °C (dec.)
